# Data published in patent US20260234159A1, “SMALL MOLECULE TREATMENT OF FATTY LIVER DISEASE AND HCC” (SCANDIEDGE THERAPEUTICS AB, priority 2023, published 2026).
# How the values were obtained:
# [1] = tested on: HepG2 cells; experiment: Wound healing assay; assay type: cell-based; conditions: Homo sapiens, HepG2, 96 h, day 4, untreated 100% wound closure, read-out: wound healing delayed by
# Procedure, shortened: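 HepG2 monolayers grown to 95-100% confluence were scratched with a pipette tip and treated with compounds at 1 μM. Wounds were imaged from day 0 until closure in the control group, and wound area was measured from the images.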
# [2] = In vivo toxicological study in rats: haematology; parameters: species or system rats of the Wistar strain
# Description: Forty-two male and forty-two female rats of the Wistar strain were allocated to the study. Three groups of three males and three females were given doses of 30, 100 and 300 mg/kg of target compounds (Table 8). The vehicle was 1.5 w/w % HPMC, 1.5 w/w % PS80 in 10 mM PBS, pH 7 and dose volume were 5 mL/kg. The animals were acclimatised at least 14 day prior to the study and exposed to a 12 hours light, 12 hours dark light cycle. The formulations were administered via oral gavage. Administration occurred once daily in the morning for seven consecutive days. Blood for scheduled haematology and plasma chemistry were taken at necropsy. For plasma chemistry, 0.6 ml blood (lithium heparin) per animal and for haematology, 0.5 ml blood (K2EDTA) per animal. The blood and plasma were analysed using Exigo analyzer and Vetscan equipment. Blood was analysed within 60 min of sampling. On the morning of analysis, the Exigo analyzer was checked against a reference sample provided by the manufacturer, and a control sample analysis cycle was performed (Table 9).
# [3] = tested on: HepG2 cells; experiment: Mitochondrial membrane potential assay (TMRE); assay type: cell-based, human; conditions: 10 μM, one day
# Procedure, shortened: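 HepG2 cells treated with compounds at the chosen concentration and time, then assayed with kits for TMRE, autophagy, DCFDA ROS or lipid peroxidation. Fluorescence intensity measured from ROI in images or by microplate reader in triplicate (GFP Ex480/Em530 nm, RFP Ex549/Em574 nm).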
# [4] = In vivo toxicological study in rats: clinical observations and body weight; conditions: 300 mg/kg oral administration
# Description: Forty-two male and forty-two female rats of the Wistar strain were allocated to the study. Three groups of three males and three females were given doses of 30, 100 and 300 mg/kg of target compounds (Table 8). The vehicle was 1.5 w/w % HPMC, 1.5 w/w % PS80 in 10 mM PBS, pH 7 and dose volume were 5 mL/kg.
# The animals were acclimatised at least 14 day prior to the study and exposed to a 12 hours light, 12 hours dark light cycle. The formulations were administered via oral gavage. Administration occurred once daily in the morning for seven consecutive days.
# A check of animal health and welfare status was done at least once on working days and weekend days.
# Body weights were recorded the week before and within 24 hours before start of dosing, on Day 3 and on necropsy Day 8.
# [5] = female, 30 mg/kg oral daily 7 d
# [6] = female, 100 mg/kg oral daily 7 d
# [7] = female, 300 mg/kg oral daily 7 d
compound,measurement,setting,value
N#Cc1c(NC(=O)c2cccc3ccccc23)sc2c1CCN(CC(=O)Nc1cccc(Br)c1)C2 [PKL-B171],inhibition at 1 µM,[1],36.4%
same,GRAN,[2]; [5],0.77 10^9/l
same,HCT,[2]; [5],43.0%
same,HGB,[2]; [5],15.3 g/dL
same,LYM,[2]; [5],4.6 10^9/l
same,MCH,[2]; [5],18.9 pg
same,MCHC,[2]; [5],35.6 g/dL
same,MCV,[2]; [5],53.3 fL
same,MONO,[2]; [5],0.13 10^9/l
same,PLT,[2]; [5],933 10^9/l
same,RBC,[2]; [5],8.08 10^12/l
same,RDW %,[2]; [5],14.6%
same,WBC,[2]; [5],5.5 10^9/l
same,GRAN,[2]; [6],0.77 10^9/l
same,HCT,[2]; [6],40.8%
same,HGB,[2]; [6],14.4 g/dL
same,LYM,[2]; [6],4.4 10^9/l
same,MCH,[2]; [6],19.7 pg
same,MCHC,[2]; [6],35.4 g/dL
same,MCV,[2]; [6],55.5 fL
same,MONO,[2]; [6],0.10 10^9/l
same,PLT,[2]; [6],1106 10^9/l
same,RBC,[2]; [6],7.36 10^12/l
same,RDW %,[2]; [6],14.1%
same,WBC,[2]; [6],5.2 10^9/l
same,GRAN,[2]; [7],1.23 10^9/l
same,HCT,[2]; [7],40.5%
same,HGB,[2]; [7],14.4 g/dL
same,LYM,[2]; [7],5.7 10^9/l
same,MCH,[2]; [7],19.1 pg
same,MCHC,[2]; [7],35.7 g/dL
same,MCV,[2]; [7],53.5 fL
same,MONO,[2]; [7],0.17 10^9/l
same,PLT,[2]; [7],1027 10^9/l
same,RBC,[2]; [7],7.55 10^12/l
same,RDW %,[2]; [7],14.2%
same,WBC,[2]; [7],7.1 10^9/l
same,GRAN,"[2]; male, 30 mg/kg oral daily 7 d",1.17 10^9/l
same,HCT,"[2]; male, 30 mg/kg oral daily 7 d",40.6%
same,HGB,"[2]; male, 30 mg/kg oral daily 7 d",14.4 g/dL
same,LYM,"[2]; male, 30 mg/kg oral daily 7 d",6.3 10^9/l
same,MCH,"[2]; male, 30 mg/kg oral daily 7 d",19.7 pg
same,MCHC,"[2]; male, 30 mg/kg oral daily 7 d",35.4 g/dL
same,MCV,"[2]; male, 30 mg/kg oral daily 7 d",55.5 fL
same,MONO,"[2]; male, 30 mg/kg oral daily 7 d",0.17 10^9/l
same,PLT,"[2]; male, 30 mg/kg oral daily 7 d",991 10^9/l
same,RBC,"[2]; male, 30 mg/kg oral daily 7 d",7.31 10^12/l
same,RDW %,"[2]; male, 30 mg/kg oral daily 7 d",14.8%
same,WBC,"[2]; male, 30 mg/kg oral daily 7 d",7.7 10^9/l
same,GRAN,"[2]; male, 100 mg/kg oral daily 7 d",1.30 10^9/l
same,HCT,"[2]; male, 100 mg/kg oral daily 7 d",43.2%
same,HGB,"[2]; male, 100 mg/kg oral daily 7 d",15.2 g/dL
same,LYM,"[2]; male, 100 mg/kg oral daily 7 d",6.6 10^9/l
same,MCH,"[2]; male, 100 mg/kg oral daily 7 d",20.1 pg
same,MCHC,"[2]; male, 100 mg/kg oral daily 7 d",35.2 g/dL
same,MCV,"[2]; male, 100 mg/kg oral daily 7 d",57.1 fL
same,MONO,"[2]; male, 100 mg/kg oral daily 7 d",0.17 10^9/l
same,PLT,"[2]; male, 100 mg/kg oral daily 7 d",981 10^9/l
same,RBC,"[2]; male, 100 mg/kg oral daily 7 d",7.57 10^12/l
same,RDW %,"[2]; male, 100 mg/kg oral daily 7 d",14.9%
same,WBC,"[2]; male, 100 mg/kg oral daily 7 d",8.1 10^9/l
same,GRAN,"[2]; male, 300 mg/kg oral daily 7 d",1.40 10^9/l
same,HCT,"[2]; male, 300 mg/kg oral daily 7 d",43.6%
same,HGB,"[2]; male, 300 mg/kg oral daily 7 d",15.4 g/dL
same,LYM,"[2]; male, 300 mg/kg oral daily 7 d",7.0 10^9/l
same,MCH,"[2]; male, 300 mg/kg oral daily 7 d",19.6 pg
same,MCHC,"[2]; male, 300 mg/kg oral daily 7 d",35.4 g/dL
same,MCV,"[2]; male, 300 mg/kg oral daily 7 d",55.4 fL
same,MONO,"[2]; male, 300 mg/kg oral daily 7 d",0.20 10^9/l
same,PLT,"[2]; male, 300 mg/kg oral daily 7 d",1115 10^9/l
same,RBC,"[2]; male, 300 mg/kg oral daily 7 d",7.87 10^12/l
same,RDW %,"[2]; male, 300 mg/kg oral daily 7 d",15.1%
same,WBC,"[2]; male, 300 mg/kg oral daily 7 d",8.6 10^9/l
same,mitochondrial membrane potential,[3],significantly decreased
same,"tolerability (adverse clinical signs, body weight, clinical pathology parameters)",[4],well tolerated
